This is an account of results in patent US6774220B1, “Compounds having lectinic properties and their biological applications” (Association pour le Développement de la Biothérapie …, priority 1995, dated 2004).

Assay [1] has as its target oligopeptide 81-95 (SEQ ID NO: 6) (Homo sapiens, UniProt P08729). The assay can be described thus: Antibody titre against oligopeptide antigen 81-95. Type of assay: binding. The text has this: (§1) By operating according to standard techniques, the formation of antibodies against the SEQ ID NO: 5 peptides or SEQ ID NO:6 is induced. The specific characters of these antibodies is set out in Table 7.

Assay [2] deals with oligopeptide 41-55 (SEQ ID NO: 5) (Homo sapiens, UniProt P08729). The assay can be described thus: Antibody titre against oligopeptide antigen 41-55. The class given is binding.
Source text: as §1

For assay [3], the system named is Ost. Sarc. ESS (SCLs excreted by the osteogenic sarcoma ESS). The assay can be described thus: Antibody titre against SCL excreted by osteogenic sarcoma ESS. Type of assay: binding.
Source text: as §1

The next assay concerns T (lympho) cells. The assay can be described thus: Stimulation over 24 hours of the synthesis of DNA in T (lympho) cells. The class given is cell-based. Here is the method: XI Stimulation over 24 hours of the synthesis of DNA in T (lympho) cells
In another assay the test system is TG-180 tumour cells. The assay can be described thus: Antitumour action on grafted TG-180 ascitic tumour.
For assay [4], the system named is encephalomyocarditis virus (EMC). Nature of the assay: Protection of IFN against the encephalomyocarditis virus in Swiss mice, with SCL inhibiting sugars. The class given is in vivo. As to conditions: EMC virus i.p. Here is the method:
The model used is the encephalomyocarditis virus (EMC) which kills mice in practically all cases after rather varying but relatively short incubation periods.
Male mice (average weight: […], aged 8 to 10 weeks) were injected i.p. with sodium galacturonate, glucosamine and N-acetylneuraminic acid (5 to 10% solutions containing 100 mM sugar). 24 hours afterwards, one hundred lethal doses (50%) of EMC virus are injected by the same route. After one hour, murine interferon is injected (in a dose of 20,000 units in 0.5 ml). Table 3 gives the number of animals surviving out of the total tested, the percentage and statistical significance.

A further assay deals with murine sarcolectin. The assay can be described thus: Action of simple sugars on the agglutination of cells by sarcolectin. The class given is cell-based, Swiss mice. As to conditions: in the presence of 2 agglutinating units of murine sarcolectin; H9 cells. Here is the method: A wide variety of cells originating either from rodents or from primates was tested. Agglutination is obtained by suspending the cells in an MEM medium in the absence of serum. The test may be carried out in two ways, either in the presence of a sarcolectin dilution range in a base 2 geometric progression, by identifying the concentration at which 50% of the cells are agglutinated, or by identifying the affinity of the various sugars for the cell receptors.
In the example shown, murine sarcolectin originating from the ascitic fluid of Swiss mice grafted with Crocker TG180 sarcoma contains 32 units agglutinating the H9 cells which originate from a T lymphoma, fixed by 10% formaldehyde.
The table below illustrates the affinity of the receptors for the various sugars in the presence of 2 agglutinating units.

The mark [5] stands for this setting: IL2 (100 u) +SCL + inhibitor (NANA 0.75 mmol.; oligo 41-55 3 μγ/ml).
Setting [6] is: single agent (+MEM, or IFN in reference group).

Some results are limits rather than exact numbers.

Procedure for TG-180 tumour cells: In order to test the antitumour capacity of SCL inhibiting sugars, TG-180 tumour cells originating from a tumour resistant to chemical metabolic inhibitors was grafted. In a concentration of 3×10^6 cells injected i.p. into 20 gr Swiss mice, an ascitic tumour is obtained which is detectable in 10 days and kills practically 100% of the animals in 21-25 days.
In parallel series, the various groups of animals were treated 3 days after inoculation, either with a specific sugar (glucosamine, lactose, galacturonate, N.A.N.A., neuramine-lactose) in a 5 to 10% solution, the sugar concentration being 100 mM, or with the same treatment in association with an injection of immuno-stimulant (extract of corynebacterium parvum, Merieux, France), in a dose of 200 g/mouse, or interferon, or both.
4 groups of mice per experiment were used.
They are assessed by the percentage of tumours that appeared on the 10th day, the mean survival time of the animals (MST) in. days, and the final survival (as a percentage).

Consider 41-55 (GLGASRPRVAVRSAY), for which the “antibody titre, oligopeptide 81-95 as antigen” value in assay [1] is recorded as below 200. Also, the “antibody titre, oligopeptide 41-55 as antigen” value in assay [2] is listed as >12 600. In addition, in assay [3], the “antibody titre, Ost. Sarc. ESS as antigen” value is given as >12 800.

Take 81-95 (DPFSQRVRQEESEQI): the “antibody titre, oligopeptide 81-95 as antigen” value in assay [1] is recorded as >12 800. For the same compound, the “antibody titre, oligopeptide 41-55 as antigen” value in assay [2] is reported as below 200.

Take `CC(=O)N[C@H]1[C@H]([C@H](O)[C@H](O)CO)OC(O)(C(=O)O)C[C@@H]1O` (stereo partly drawn) [N.A.N.A, N-acetylneuraminic acid]: the “effect on the stimulation of DNA synthesis by SCL (in words)” value in the assay on T (lympho) cells (24 hours) is recorded as “inhibited”. Moreover, in the assay with T (lympho) cells (setting [5]), the “synthesis of DNA, EXP. N° 1” value is given as 4,657 ± 214.78 and the “synthesis of DNA, EXP. N° 2” value is listed as 27,133 ± 1771. Moreover, in the assay with TG-180 tumour cells (+CP), the “Final survival (%)” value is reported as “(53) %”; the “Final survival, Number” value was determined as 8; the “MST (mean survival time)” value is 69 ± 12 days; the “Tumours on 10th day (%)” value came to 40%. In addition, the “Tumours on 10th day, number” value in the assay on TG-180 tumour cells (+CP) turned out to be 6. Further, in the assay on TG-180 tumour cells (+CP +IFN), the “Final survival (%)” value is “(36) %”; the “Final survival, Number” value came to 11; the “MST (mean survival time)” value worked out at 70 ± 12 days; the “Tumours on 10th day (%)” value amounted to 43%. Besides, the “Tumours on 10th day, number” value in the assay with TG-180 tumour cells (+CP +IFN) was 13. Moreover, in the assay on TG-180 tumour cells (+IFN), the “Final survival (%)” value is “(13) %”; the “Final survival, Number” value is 4; the “MST (mean survival time)” value is given as 39 ± 12 days; the “Tumours on 10th day (%)” value is recorded as 16%. In addition, the “Tumours on 10th day, number” value in the assay with TG-180 tumour cells (+IFN) was found to be 5. Besides, in the assay with TG-180 tumour cells (agent alone), the “Final survival (%)” value was “(0) %”; the “Final survival, Number” value was found to be 0; the “MST (mean survival time)” value is recorded as 24 ± 6 days; the “Tumours on 10th day (%)” value was determined as 34%. Also, the “Tumours on 10th day, number” value in the assay with TG-180 tumour cells (agent alone) came out at 9. For the same compound, in assay [4] (setting [6]), the “number of animals surviving out of the total number tested” value was 0/15 and the percentage surviving was 0%. Further, in assay [4] (sugar +IFN (20,000 units)), the “number of animals surviving out of the total number tested” value is 8/15c and the percentage surviving is listed as 53%. The affinity in the assay with murine sarcolectin was determined as 0.0075 mM.
